# Measurements from patent US7977322B2 (Vertex Pharmaceuticals Incorporated, priority 2004, dated 2011).
# Target: T1, ΔF508-CFTR (Homo sapiens, UniProt P13569, DEL508-508)
# T1 construct: expressed in transfected cells
# Experiment: Membrane potential optical (FRET/VIPR) assay, identification of correction compounds
# Format: cell-based
# Settings: Table 3, assay not given; for Emax: read-out: % Activity / % Efficacy (relative efficacy)
# Description: I) Membrane Potential Optical Methods for Assaying ΔF508-CFTR Modulation Properties of Compounds
# These voltage sensitive assays are based on the change in fluorescence resonant energy transfer (FRET) between the membrane-soluble, voltage-sensitive dye, DiSBAC2(3), and a fluorescent phospholipid, CC2-DMPE, which is attached to the outer leaflet of the plasma membrane and acts as a FRET donor. Changes in membrane potential (Vm) cause the negatively charged DiSBAC2(3) to redistribute across the plasma membrane and the amount of energy transfer from CC2-DMPE changes accordingly. The changes in fluorescence emission were monitored using VIPR™ II, which is an integrated liquid handler and fluorescent detector designed to conduct cell-based screens in 96- or 384-well microtiter plates.
# Identification of Correction Compounds
# To identify small molecules that correct the trafficking defect associated with ΔF508-CFTR; a single-addition HTS assay format was developed. The cells were incubated in serum-free medium for 16 hrs at 37° C. in the presence or absence (negative control) of test compound. As a positive control, cells plated in 384-well plates were incubated for 16 hrs at 27° C. to “temperature-correct” ΔF508-CFTR. The cells were subsequently rinsed 3× with Krebs Ringers solution and loaded with the voltage-sensitive dyes. To activate ΔF508-CFTR, 10 μM forskolin and the CFTR potentiator, genistein (20 μM), were added along with Cl^− free medium to each well. The addition of Cl^− free medium promoted Cl^− efflux in response to ΔF508-CFTR activation and the resulting membrane depolarization was optically monitored using the FRET-based voltage-sensor dyes.
# • Bath Solution #1: (in mM) NaCl 160, KCl 4.5, CaCl2 2, MgCl2 1, HEPES 10, pH 7.4 with NaOH. • Chloride-free bath solution: Chloride salts in Bath Solution #1 are substituted with gluconate salts. • CC2-DMPE: Prepared as a 10 mM stock solution in DMSO and stored at −20° C. • DiSBAC2(3): Prepared as a 10 mM stock in DMSO and stored at −20° C.
# NIH3T3 mouse fibroblasts stably expressing ΔF508-CFTR are used for optical measurements of membrane potential. The cells are maintained at 37° C. in 5% CO2 and 90% humidity in Dulbecco's modified Eagle's medium supplemented with 2 mM glutamine, 10% fetal bovine serum, 1×NEAA, β-ME, 1×pen/strep, and 25 mM HEPES in 175 cm^2 culture flasks. For all optical assays, the cells were seeded at 30,000/well in 384-well matrigel-coated plates and cultured for 2 hrs at 37° C. before culturing at 27° C. for 24 hrs. for the potentiator assay.
# T1 sequence (P13569 with tags, fused parts or gaps DEL508-508): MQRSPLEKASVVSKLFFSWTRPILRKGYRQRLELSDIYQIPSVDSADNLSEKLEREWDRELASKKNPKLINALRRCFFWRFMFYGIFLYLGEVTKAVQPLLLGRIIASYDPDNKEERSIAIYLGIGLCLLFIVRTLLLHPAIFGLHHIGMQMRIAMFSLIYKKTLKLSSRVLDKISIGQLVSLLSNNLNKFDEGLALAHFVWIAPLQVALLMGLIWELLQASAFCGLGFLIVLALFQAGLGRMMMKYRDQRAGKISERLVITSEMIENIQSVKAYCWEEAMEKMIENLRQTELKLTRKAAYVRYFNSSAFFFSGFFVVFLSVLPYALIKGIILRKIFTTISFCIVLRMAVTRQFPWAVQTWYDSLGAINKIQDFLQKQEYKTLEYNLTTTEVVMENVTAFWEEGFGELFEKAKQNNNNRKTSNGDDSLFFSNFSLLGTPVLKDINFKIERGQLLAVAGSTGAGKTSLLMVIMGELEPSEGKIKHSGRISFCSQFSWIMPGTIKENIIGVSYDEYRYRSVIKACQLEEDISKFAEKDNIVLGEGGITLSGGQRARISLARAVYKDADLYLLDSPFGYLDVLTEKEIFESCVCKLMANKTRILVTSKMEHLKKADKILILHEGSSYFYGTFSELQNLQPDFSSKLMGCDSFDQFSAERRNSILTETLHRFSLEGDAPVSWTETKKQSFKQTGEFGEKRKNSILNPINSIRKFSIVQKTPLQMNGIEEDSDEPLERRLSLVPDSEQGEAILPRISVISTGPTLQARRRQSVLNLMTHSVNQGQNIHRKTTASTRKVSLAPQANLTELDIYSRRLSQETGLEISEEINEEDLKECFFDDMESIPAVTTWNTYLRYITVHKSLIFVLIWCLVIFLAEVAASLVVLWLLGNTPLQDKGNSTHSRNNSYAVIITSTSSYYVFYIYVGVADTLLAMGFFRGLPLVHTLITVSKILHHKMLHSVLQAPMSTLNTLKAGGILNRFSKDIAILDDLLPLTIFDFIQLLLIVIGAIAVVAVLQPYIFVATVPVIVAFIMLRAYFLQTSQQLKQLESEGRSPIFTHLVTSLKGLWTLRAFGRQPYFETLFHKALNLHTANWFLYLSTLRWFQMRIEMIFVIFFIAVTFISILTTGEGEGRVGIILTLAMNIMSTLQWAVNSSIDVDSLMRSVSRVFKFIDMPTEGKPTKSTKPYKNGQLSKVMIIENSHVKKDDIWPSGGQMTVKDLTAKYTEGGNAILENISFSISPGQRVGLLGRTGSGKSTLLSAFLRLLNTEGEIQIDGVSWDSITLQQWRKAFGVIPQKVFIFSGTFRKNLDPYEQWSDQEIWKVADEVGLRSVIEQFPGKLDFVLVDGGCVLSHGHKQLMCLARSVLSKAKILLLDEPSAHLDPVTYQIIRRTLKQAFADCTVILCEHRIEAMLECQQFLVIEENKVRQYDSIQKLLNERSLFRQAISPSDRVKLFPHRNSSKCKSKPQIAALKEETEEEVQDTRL
SMILES,% Activity / % Efficacy (relative efficacy),EC50 [µM],Emax [%]
Cc1cnc(NC(=O)C2(c3ccc4c(c3)OCO4)CC2)s1 [Example 85],+++ (“+++” means>100%),< 10,
Cc1ccccc1C1(C(=O)Nc2ncc(C(c3ccccc3Cl)N3CC[C@@H](O)C3)s2)CC1 (some centres unmarked) [Example 444],,< 10,> 100
CC(C)(C)C(c1cnc(NC(=O)C2(c3ccc4c(c3)OCO4)CC2)s1)N1CCOCC1 (centres unmarked) [Example 394],,< 10,> 100
O=C(Nc1ncc(C(c2ccccc2Cl)N2CC[C@@H](O)C2)s1)C1(c2ccc(C(F)(F)F)cc2)CC1 (some centres unmarked) [Example 445],,< 10,> 100
O=C(Nc1ncc(C(OCCCCN2CCC(O)CC2)c2ccccc2Cl)s1)C1(c2ccc3c(c2)OCO3)CC1 (centres unmarked) [Example 279],+++ (“+++” means>100%),< 10,
O=C(Nc1ncc(Sc2ccccc2)s1)C1(c2ccc3c(c2)OCO3)CC1 [Example 105],+++ (“+++” means>100%),< 10,
COc1ccc(C2(C(=O)Nc3ncc(Sc4ccc(N)cc4)s3)CC2)cc1 [Example 96],++ (“++” means between 25% to 100%),< 10,
NC(=O)C1CCCN1C(Cc1ccccc1Cl)c1cnc(NC(=O)C2(c3ccc4c(c3)OCO4)CC2)s1 (centres unmarked) [Example 458],,< 10,> 100
O=C(Nc1ncc(C(SCCCCO)c2ccccc2Cl)s1)C1(c2ccc3c(c2)OCO3)CC1 (centres unmarked) [Example 131],,< 10,
CCC(c1cnc(NC(=O)C2(c3ccc4c(c3)OCO4)CC2)s1)N1CCC(O)CC1 (centres unmarked) [Example 396],,10 to 25,25 to 100
Cc1cc(F)ccc1Cc1cnc(NC(=O)C2(c3ccc4c(c3)OCO4)CC2)s1 [Example 283],++ (“++” means between 25% to 100%),< 10,
CC(C)OC(c1cnc(NC(=O)C2(c3ccc4c(c3)OCO4)CC2)s1)c1ccccc1Cl (centres unmarked) [Example 261],+++ (“+++” means>100%),< 10,
CCCc1nc(NC(=O)C2(c3ccc4c(c3)OCO4)CC2)sc1C(=O)O [Example 191],++ (“++” means between 25% to 100%),< 10,
O=C(Nc1ncc(C(c2ccccc2Cl)N2CC[C@@H](O)C2)s1)C1(c2ccccc2C(F)(F)F)CC1 (some centres unmarked) [Example 442],,< 10,25 to 100
COC(=O)Cn1cc(Cc2ccccc2Cl)sc1=NC(=O)C1(c2ccc(OC)cc2)CC1 [Example 72],++ (“++” means between 25% to 100%),25 to 60,
CCC(c1cnc(NC(=O)C2(c3ccc4c(c3)OCO4)CC2)s1)N1CC[C@@H](O)C1 (some centres unmarked) [Example 402],,10 to 25,> 100
COCC1CCCN1C(c1cnc(NC(=O)C2(c3ccc4c(c3)OCO4)CC2)s1)C(C)(C)C (centres unmarked) [Example 389],,10 to 25,> 100

SMILES,% Activity / % Efficacy (relative efficacy),EC50 [µM],Emax [%]
COc1ccc(C2(C(=O)Nc3ncc(Sc4cccc(C(=O)O)c4)s3)CC2)cc1 [Example 97],+++ (“+++” means>100%),< 10,
CC(C)C[C@H](CO)NC(c1cnc(NC(=O)C2(c3ccc4c(c3)OCO4)CC2)s1)c1cccc2c1OC(F)(F)O2 (some centres unmarked) [Example 498],,< 10,
COc1ccc(C2(C(=O)Nc3ncc(C)s3)CC2)cc1 [Example 64],+++ (“+++” means>100%),< 10,
O=C(Nc1ncc(C2(c3ccccc3)CCCC2)s1)C1(c2ccc3c(c2)OCO3)CC1 [Example 111],+++ (“+++” means>100%),< 10,
COc1ccc(C2(C(=O)Nc3ncc(C(c4ccccc4Cl)N4CC[C@@H](O)C4)s3)CC2)cc1 (some centres unmarked) [Example 420],,< 10,> 100
O=C(Nc1ncc(C(NCc2ccco2)c2ccccc2Cl)s1)C1(c2ccc3c(c2)OCO3)CC1 (centres unmarked) [Example 412],,< 10,> 100
CN(C)C(c1ccc(S(C)(=O)=O)cc1)c1cnc(NC(=O)C2(c3ccc4c(c3)OCO4)CC2)s1 (centres unmarked) [Example 381],,10 to 25,25 to 100
CC(C)C[C@@H](CO)NC(c1cnc(NC(=O)C2(c3ccc4c(c3)OCO4)CC2)s1)c1ccccc1Cl (some centres unmarked) [Example 495],,< 10,25 to 100
O=C(Nc1ncc(-c2ccncc2)s1)C1(c2ccc3c(c2)OCO3)CC1 [Example 299],,10 to 25,25 to 100
O=C(Nc1ncc(C(NC2CC2)c2ccccc2Cl)s1)C1(c2ccc3c(c2)OCO3)CC1 (centres unmarked) [Example 415],,< 10,> 100
O=C(Nc1cnc(Cc2ccccc2Cl)s1)C1(c2ccc3c(c2)OCO3)CC1 [Example 267],,< 10,> 100
C[C@@H](CO)NC(c1cnc(NC(=O)C2(c3ccc4c(c3)OCO4)CC2)s1)c1ccccc1Cl (some centres unmarked) [Example 424],,< 10,> 100
O=C(Nc1ncc(C(c2ccccc2Cl)n2ccnc2)s1)C1(c2ccc3c(c2)OCO3)CC1 (centres unmarked) [Example 241],++ (“++” means between 25% to 100%),< 10,
COC[C@@H]1CCCN1C(c1ccc(S(C)(=O)=O)cc1)c1cnc(NC(=O)C2(c3ccc4c(c3)OCO4)CC2)s1 (some centres unmarked) [Example 379],,10 to 25,25 to 100
COc1ccc(C(c2cnc(NC(=O)C3(c4ccc5c(c4)OCO5)CC3)s2)N(C)C)cc1 (centres unmarked) [Example 350],,< 10,> 100
CC(C)[C@H](CO)NC(c1cnc(NC(=O)C2(c3ccc4c(c3)OCO4)CC2)s1)c1ccccc1C(F)(F)F (some centres unmarked) [Example 481],,< 10,> 100
CN(C)C(c1ccccc1)c1cnc(NC(=O)C2(c3ccc4c(c3)OCO4)CC2)s1 (centres unmarked) [Example 356],,10 to 25,> 100

# Other lines, results leading:
% Activity / % Efficacy (relative efficacy),EC50 [µM],Emax [%],SMILES
+++ (“+++” means>100%),< 10,,COc1ccc(C2(C(=O)Nc3ncc(Cc4cnccc4OC)s3)CC2)cc1 [Example 242]
+++ (“+++” means>100%),< 10,,COc1ccc(C2(C(=O)Nc3ncc(Cc4ccccc4C(N)=O)s3)CC2)cc1 [Example 76]
,< 10,25 to 100,O=C(Nc1ncc(Cc2ccccc2Cl)s1)C1(c2ccc(O)cc2)CC1 [Example 317]
+++ (“+++” means>100%),< 10,,COc1ccc(C2(C(=O)Nc3ncc(S(=O)(=O)c4ccccc4OC)s3)CC2)cc1 [Example 88]
,< 10,> 100,COc1ccc(C2(C(=O)Nc3ncc(Cc4ccc(Cl)cc4)s3)CC2)cc1 [Example 13]
++ (“++” means between 25% to 100%),< 10,,COc1ccc(CC2(C(=O)Nc3ncc(Cc4ccccc4Cl)s3)CC2)cc1 [Example 201]
,< 10,> 100,O=C(Nc1ncc(Cc2ccccc2Cl)s1)C1(c2ccc(-n3cncn3)cc2)CC1 [Example 307]
+++ (“+++” means>100%),< 10,,COc1cccc(F)c1Cc1cnc(NC(=O)C2(c3ccc4c(c3)OCO4)CC2)s1 [Example 196]
++ (“++” means between 25% to 100%),< 10,,O=C(Nc1ncc(Cc2ccccc2Cl)s1)C1(c2ccc3c(c2)OCO3)CC1 [Example 56]
++ (“++” means between 25% to 100%),25 to 60,,COc1cccc(C2(C(=O)Nc3ncc(Cc4ccccc4OC)s3)CC2)c1 [Example 67]
+++ (“+++” means>100%),< 10,,COc1ccc(C2(C(=O)Nc3ncc(Cc4cc(F)ccc4OC)s3)CC2)cc1 [Example 179]
+++ (“+++” means>100%),< 10,,COc1ccc(C2(C(=O)Nc3ncc(Cc4ccccc4OC)s3)CCOCC2)cc1 [Example 57]
,< 10,25 to 100,CS(=O)(=O)Nc1cccc(C2(C(=O)Nc3ncc(Cc4ccccc4Cl)s3)CC2)c1 [Example 308]
,< 10,25 to 100,COc1ccc(C2(C(=O)Nc3ncc(Sc4ccccc4Cl)s3)CC2)cc1 [Example 36]
,< 10,> 100,O=C(Nc1ncc(Cc2ccccc2Cl)s1)C1(c2cccc(F)c2)CCCCC1 [Example 305]
+++ (“+++” means>100%),< 10,,COc1ccc(F)cc1Cc1cnc(NC(=O)C2(c3ccc4c(c3)OCO4)CC2)s1 [Example 182]
